Drawing on US20210323977A1, “PYRROLIDINYL AMIDE COMPOUNDS FOR THE TREATMENT OF AUTOIMMUNE DISEASE” (Hoffmann-La Roche Inc., priority 2018, published 2021), this text covers IC50 for 8 compounds.

By IC50 is commonly meant the concentration that gives 50% inhibition.

This test has as its target T1, human TLR8 (Homo sapiens, UniProt Q9NR97).
T1 sequence (Q9NR97 27-1041): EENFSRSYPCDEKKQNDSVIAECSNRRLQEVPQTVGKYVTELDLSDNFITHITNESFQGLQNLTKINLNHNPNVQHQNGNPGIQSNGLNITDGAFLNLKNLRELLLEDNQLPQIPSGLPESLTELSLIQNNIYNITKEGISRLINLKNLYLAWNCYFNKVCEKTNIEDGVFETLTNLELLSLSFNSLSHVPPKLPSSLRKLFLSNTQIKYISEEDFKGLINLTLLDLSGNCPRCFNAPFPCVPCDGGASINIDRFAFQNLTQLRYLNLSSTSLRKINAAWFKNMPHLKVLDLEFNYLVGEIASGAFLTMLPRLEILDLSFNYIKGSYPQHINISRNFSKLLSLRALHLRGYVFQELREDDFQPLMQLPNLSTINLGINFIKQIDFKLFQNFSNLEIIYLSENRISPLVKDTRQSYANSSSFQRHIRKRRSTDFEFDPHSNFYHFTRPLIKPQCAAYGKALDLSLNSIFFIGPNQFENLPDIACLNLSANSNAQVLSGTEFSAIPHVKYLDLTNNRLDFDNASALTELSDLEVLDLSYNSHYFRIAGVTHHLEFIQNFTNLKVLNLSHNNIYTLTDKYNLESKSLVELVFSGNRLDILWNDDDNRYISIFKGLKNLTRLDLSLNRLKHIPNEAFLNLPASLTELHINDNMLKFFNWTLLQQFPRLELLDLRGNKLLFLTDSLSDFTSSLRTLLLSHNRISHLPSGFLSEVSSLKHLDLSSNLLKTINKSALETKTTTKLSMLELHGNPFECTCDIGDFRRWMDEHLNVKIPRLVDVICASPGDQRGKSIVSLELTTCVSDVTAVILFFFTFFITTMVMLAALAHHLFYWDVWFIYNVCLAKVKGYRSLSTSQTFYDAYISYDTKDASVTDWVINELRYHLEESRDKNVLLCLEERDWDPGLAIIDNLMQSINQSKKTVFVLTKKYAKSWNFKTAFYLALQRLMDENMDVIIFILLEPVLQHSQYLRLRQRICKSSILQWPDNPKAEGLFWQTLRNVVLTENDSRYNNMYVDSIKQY
Nature of the test: HEK293-Blue-hTLR-8 cells assay. Conditions: HEK293-Blue-hTLR8 cells, SEAP reporter, R848 stimulation, 20 hrs. Type of test: cell-based. An excerpt: HEK293-Blue-hTLR-8 Cells Assay:
A stable HEK293-Blue-hTLR-8 cell line was purchased from InvivoGen (Cat. #: hkb-htlr8, San Diego, Calif., USA). These cells were originally designed for studying the stimulation of human TLR8 by monitoring the activation of NF-κB. A SEAP (secreted embryonic alkaline phosphatase) reporter gene was placed under the control of the IFN-β minimal promoter fused to five NF-κB and AP-1-binding sites. The SEAP was induced by activating NF-κB and AP-1 via stimulating HEK-Blue hTLR8 cells with TLR8 ligands. Therefore the reporter expression was declined by TLR8 antagonist under the stimulation of a ligand, such as R848, for incubation of 20 hrs. The cell culture supernatant SEAP reporter activity was determined using QUANTI-Blue™ kit (Cat. #: rep-qb1, Invivogen, San Diego, Ca, USA) at a wavelength of 640 nm, a detection medium that turns purple or blue in the presence of alkaline phosphatase.
HEK293-Blue-hTLR8 cells were incubated at a density of 250,000-450,000 cells/mL in a volume of 170 μL in a 96-well plate in Dulbecco's Modified Eagle's medium (DMEM) containing 4.5 g/L glucose, 50 U/mL penicillin, […], […], 2 mM L-glutamine, 10% (v/v) heat-inactivated fetal bovine serum with addition of 20 μL test compound in a serial dilution in the presence of final DMSO at 1% and 10 sL of 60 uM R848 in above DMEM, perform incubation under 37° C. in a CO2 incubator for 20 hrs. Then 20 μL of the supernatant from each well was incubated with 180 sL Quanti-blue substrate solution at 37° C. for 2 hrs and the absorbance was read at 620˜655 nm using a spectrophotometer. The signalling pathway that TLR8 activation leads to downstream NF-κB activation has been widely accepted, and therefore similar reporter assay was modified for evaluating TLR8 antagonist.

For the compound `CN1CCC(NC(=O)[C@@H]2CN(c3ccc(Cl)c4ncccc34)C[C@H]2C(F)(F)F)CC1` (relative stereo) [Example 46, Trans-1-(8-chloro-5-quinolyl)-N-(1-methyl-4-piperidyl)-4-(trifluoromethyl)pyrrolidine-3-carboxamide], half-maximal inhibition (IC50) was put at 51 nM.
Compound `O=C(NC1CC2CCC(C1)N2)C1CN(c2ccc(C(F)(F)F)c3nccnc23)CC12CC2` (centres unmarked) [Example 23, N-(8-azabicyclo[3.2.1]octan-3-yl)-5-[8-(trifluoromethyl)quinoxalin-5-yl]-5-azaspiro[2.4]heptane-7-carboxamide] yielded a concentration for half-maximal inhibition (IC50) of 243 nM.
The result for `N[C@@H]1C[C@H](NC(=O)C2CN(c3ccc(C(F)(F)F)c4nccnc34)CC23CC3)[C@@H]2C[C@@H]21` (stereo partly drawn) [Example 36, N-[(1R,2S,4R,5S)-4-amino-2-bicyclo[3.1.0]hexanyl]-5-[8-(trifluoromethyl)quinoxalin-5-yl]-5-azaspiro[2.4]heptane-7-carboxamide] reads 251 nM; that for `C[C@@H]1CN(c2ccc(C#N)c3ncccc23)C[C@H]1C(=O)NC1CCCNCC1` (single isomer, unassigned) [Example 52A, Trans-N-(azepan-4-yl)-1-(8-cyano-5-quinolyl)-4-methyl-pyrrolidine-3-carboxamide], 225 nM.
The figure for `O=C(NC1CC2(CCNCC2)C1)C1CN(c2ccc(C(F)(F)F)c3nccnc23)CC12CC2` (centres unmarked) [Example 34, N-(7-azaspiro[3.5]nonan-2-yl)-5-[8-(trifluoromethyl)quinoxalin-5-yl]-5-azaspiro[2.4]heptane-7-carboxamide] is 437 nM.
As to `CC(C)[C@@H]1CN(c2ccc(C#N)c3ncccc23)C[C@H]1C(=O)NC1CCN(C)CC1` (relative stereo) [Example 37, Trans-1-(8-cyano-5-quinolyl)-4-isopropyl-N-(1-methyl-4-piperidyl)pyrrolidine-3-carboxamide], the IC50 was determined as 489 nM.
The result for `N#Cc1ccc(N2CC(C(=O)NC[C@H]3CNCCO3)C3(CC3)C2)c2nccnc12` (single isomer, unassigned) [Example 70B] reads 168 nM; that for `N#Cc1ccc(N2CC(C(=O)NC[C@H]3CNCCO3)C3(CC3)C2)c2nccnc12` (single isomer, unassigned) [Example 70A], 34 nM.
